Assays:
[1] = system: sensitized conscious guinea pigs exposed to aerosol ovalbumin; test: Protection against allergic bronchospasm in ovalbumin-sensitized conscious guinea pigs; assay type: in vivo, guinea pig
Description: Test method: Guinea pigs (Dunkin-Hartley strain, 200±10 g, equal sexes) were used in this study. Ovalbumin (5%) solution was injected into guinea pigs subcutaneously and intraperitoneally to sensitize the animals. Male and female sensitized animals were kept separately for 14 days, and food and water was available ad libitum. On day 14 after sensitization, animals were randomized into groups of 8 each. The animals were treated orally with saline (control) or various concentrations of R-bambuterol or racemic bambuterol in saline. Four hours after the treatment, each animal was restrained in a glass chamber. After stabilization the animal was exposed to an aerosol of ovalbumin generated by a nebulizer from a 5% solution of ovalbumine at a rate of 0.5 ml/min for a period of 15 seconds. The animal was removed from the chamber, and the behavior of the animal was monitored. The number of the sensitized animals which collapsed were counted, and the latency time, i.e. the time from the exposure to aerosol ovalbumin to the collapse of the animal, was recorded.

[2] = Serum concentration of active parent form (terbutaline) after oral dosing; assay type: in vivo, guinea pig; conditions: guinea pigs, 8 mg/kg oral, four hours later
Description: Based on the pharmacokinetic studies of racemic bambuterol hydrochloride, about 50% of absorbed bambuterol is hydrolyzed to terbutaline, the active-parent form, in plasma. There is little cholinesterase in the lung strip preparation, so neither the test compound nor racemic bambuterol has significant effects. In order to test the compound of invention in vitro on isolated guinea-pig lung tissue, R-bambuterol and racemic bambuterol were administrated orally to guinea pigs at a dose of 8 mg/kg. Four hours later, blood was collected from the animals, and the serum containing the active parent form of the test compounds were prepared. The concentration of the active parent form, i.e. terbutaline, in serum measured using BPLC, was 64-70 ng/ml in the animal treated with R-bambuterol and 62-69 ng/ml in the animal treated with racemic bambuterol. The serum containing the active form of test compound was then added into the organ in a certain volume, so that the final concentration of the active forms of test compounds was 0.25 ng/ml in the organ bath. Concentration-response relationships were obtained using a cumulative dose schedule by adding the same volume of the serum into the organ bath. The test using the serum containing the active form of racemic bambuterol was done in parallel with the test compound in the same manner as described above.

hyperlipidemia mice = test: Lipid lowering effects in Tyloxapol-induced hyperlipidemia mice; assay type: in vivo
Description: Test method: Male and […] mice, Kunming strain, 35 each, weight 18-22 grams, were used. Food and water were available ad libitum. The animals were randomized into 7 groups (n=10). Groups of animals were administered orafly, via a stomach tube, vehicle (distilled water, two groups), R-bambuterol hydrochloride (10 mg/kg and 5 mg/kg), racemic bambuterol hydrochloride (10 mg/kg and 5 mg/kg) and simvastatin (10 mg/kg) once a day for four days. With the exception of one vehicle—treated group (as control), Tyloxapol (400 mg/kg, Sigma Chemical Co.) was injected into the peritoneal cavity of the mice of all groups immediately after the last treatment on the fourth day in order to induce hyperlipidemia. All the animals were fasted overnight prior to the injection of Tyloxapol. Blood samples were collected by cardiac puncture 24 hours after the injection of Tyloxapol. The blood samples were processed to plasma, and concentration of triglycerides (TG), cholesterol (CHO), high density lipoprotein (HDL), low density lipoprotein (LDL) and very low density lipoprotein (VLDL) were measured with an autoblood analyzer (Olympic, Japan).

rats = test: Cardiovascular effects in anesthetized rats; assay type: in vivo; conditions: 30 mg/kg intravenously
From the text: Test method: Rats (Sprague Dawley, 250-300 g) were randomized into two groups (n=6, equal sexes). After anesthesia, plastic tubing was introduced into a carotid artery of each animal and connected to pressure transducers to record mean artery pressure (MBP) and heart rate (HR). Another tube was introduced into the left ventricular chamber via the another carotid artery and connected to a pressure transducer. Left ventricular systolic pressure (LVSP) and the first order of differential of LVSP (dp/dt) as an index for inotropic effects were recorded. R-Bambuterol and racemic bambuterol hydrochloride were dissolved in saline and administrated intravenously at 30 mg/kg to each animal. The HR, MBP and Max dp/dt were measured before treatment (control) and after the treatments when the maximum response occurred, and 20 min after treatment as indication of recovery.

[3] = in plasma; cited from earlier work

## CN(C)C(=O)Oc1cc(OC(=O)N(C)C)cc(C(O)CNC(C)(C)C)c1 (stereo not drawn) [RS-bambuterol, bambuterol]
[1]; 1 mg/kg oral
  % collapsed: 75%
  Latency time: 156 ± 38 s
[1]; 1 mg/kg oral (n = 8), four hours before aerosol ovalbumin
  Number collapsed: 6
[1]; 4 mg/kg oral
  % collapsed: 38%
  Latency time: 174 ± 21 s
[1]; 4 mg/kg oral (n = 8)
  Number collapsed: 3
[1]; 8 mg/kg oral
  % collapsed: 25%
[1]; 8 mg/kg oral (n = 8)
  Number collapsed: 2
[1]; 8 mg/kg oral, listed as Racemic bambuterol
  Latency time: 316 ± 36 s
[1]; 8 mg/kg oral, listed as racemic bambuterol
  Latency time: 316 ± 36 s
[2]
  Concentration of the active parent form, terbutaline, in serum: 62 to 69 ng/mL
Hyperlipidemia mice; Tyl + 10 mg
  CHO lipid level: 125.2 ± 19.8 mg/dL
  HDL lipid level: 50 ± 17 mg/dL
  LDL lipid level: 30 ± 6 mg/dL
  VLDL lipid level: 44.2 ± 14.4 mg/dL
Hyperlipidemia mice; Tyl + 10 mg (10 mg/kg oral once a day for four days), plasma 24 hours after Tyloxapol
  TG lipid level: 148 ± 45 mg/dL
rats; 20 min after treatment
  MBP 20 min after Δ, % of control: 8.3%
  MBP, 20 min after Δ: 1.1 ± 0.4 Kpa
  Maxdp/dt 20 min after Δ, % of control: 4.8%
  Maxdp/dt, 20 min after Δ: 13 ± 3.8 Kpa/sec
rats; 20 min after treatment, listed as Rac-Bambuterol
  HR 20 min after Δ, % of Control: 9.5%
rats; 20 min after treatment, listed as racemic bambuterol hydrochloride
  HR 20 min after Δ, % of Control: 9.5%
rats; maximum response
  HR Treatment Δ, % of Control: 20.6%
  HR, Treatment Δ: 85.8 ± 5 Beat/min
  MBP Treatment Δ, % of control: 31.6%
  MBP, Treatment Δ: 4.2 ± 0.5 Kpa
  Maxdp/dt, Treatment Δ: 65.4 ± 9 Kpa/sec
rats; maximum response, listed as Rac-Bambuterol
  Maxdp/dt Treatment Δ, % of control: 24.4%
rats; maximum response, listed as racemic bambuterol
  Maxdp/dt Treatment Δ, % of control: 24.4%
[3]
  Fraction of absorbed bambuterol hydrolyzed to terbutaline: about 50%

Source: patent publication US7495028B2, “R-bambuterol, its preparation and therapeutic uses” (priority 2002, dated 2009)
